Assays:
Amaranthus hybridus = experiment: Post-emergence herbicidal activity, efficacy on Amaranthus hybridus (Colby method); type: in vivo
Experimental: (§1) The following products were used for evaluating the weed control efficacy of present herbicidal combinations.
(§2) Methodology: Trials were carried out to evaluate the efficacy of the combinations comprising L-glufosinate ammonium and additional herbicides on Amaranthus genus weeds.
(§3) The soil used was sandy clay loam-sand: 68.0%; silt: 8.0%; clay: 24.0%.
(§4) All treatments were in 3 replications per treatment with a spray volume of 150 L/ha.
(§5) Efficacy Evaluation: The expected efficacy of the combination comprising L-glufosinate ammonium and additional herbicides was calculated using the well-established Colby method.
In the Colby method, the expected (or predicted) response of a combination of herbicides is calculated by taking the product of the observed response for each individual component of the combination when applied alone, divided by 100, and subtracting this value from the sum of the observed response for each component when applied alone. An unexpected enhancement in efficacy of the combination is then determined by comparing the observed response of the combination to the expected (or predicted) response as calculated from the observed response of each individual component alone. If the observed response of the combination is greater than the expected (or predicted) response, or stated conversely, if the difference between the observed and expected response is greater than zero, then the combination is said to be synergistic or unexpectedly effective (Colby, S. R., Weeds, 1967(15), p. 20-22). The Colby method requires only a single dose of each herbicide applied alone and the mixture of both doses. The formula used to calculate the expected efficacy (EE) which was compared with the observed efficacy (OE) to determine the efficacy of the present disclosure is explained herein:
The expected efficacy for a combination of two active ingredients is as follows:
The expected efficacy for a combination of three active ingredients is as follows:
[formula] • wherein, • A=Observed efficacy of active ingredient A at the same concentration as used in the mixture. • B=Observed efficacy of the active ingredient B at the same concentration as used in the mixture. • C=Observed efficacy of the active ingredient C at the same concentration as used in the mixture.
Experiment was conducted to assess the efficacy of herbicidal combination comprising L-glufosinate ammonium (glufosinate-P-ammonium) and saflufenacil to control the weed, Amaranthus hybridus.
The percentage efficacy was calculated after 3 days of applications (DAA). The target weed was Amaranthus hybridus, and the concentration of the herbicide and the results are recorded in Table 7.
Experiment was conducted to assess the efficacy of herbicidal combination comprising L-glufosinate ammonium, saflufenacil and triclopyr to control the weed Amaranthus hybridus.
The percentage efficacy was calculated after 3 DAA. The target weed was Amaranthus hybridus, and the concentration of the herbicide and the results are recorded in Table 8.
Experiment was conducted to assess the efficacy of herbicidal combination comprising L-glufosinate ammonium, saflufenacil and 2,4-D Choline to control the weed, Amaranthus hybridus.
The percentage efficacy was calculated after 3 DAA. The target weed was Amaranthus hybridus, and the concentration of the herbicide and the results are recorded in Table 9.
Experiment was conducted to assess the efficacy of herbicidal combination comprising L-glufosinate ammonium and quizalofop-ethyl to control the weed, Amaranthus hybridus.
The percentage efficacy was calculated after 3 DAA and 14 DAA. The target weed was Amaranthus hybridus, and the concentration of the herbicide and the results are recorded in Table 10.
Experiment was conducted to assess the efficacy of herbicidal combination comprising L-glufosinate ammonium and quizalofop-p-tefuryl to control the weed, Amaranthus hybridus
The percentage efficacy was calculated after 3 DAA and 14 DAA.

Amaranthus viridis = experiment: Post-emergence herbicidal activity, efficacy on Amaranthus viridis (Colby method); type: in vivo
Experimental: as §1, §2, §3, §4, §5
In the Colby method, the expected (or predicted) response of a combination of herbicides is calculated by taking the product of the observed response for each individual component of the combination when applied alone, divided by 100, and subtracting this value from the sum of the observed response for each component when applied alone. An unexpected enhancement in efficacy of the combination is then determined by comparing the observed response of the combination to the expected (or predicted) response as calculated from the observed response of each individual component alone. […]
The percentage efficacy was calculated after 3 DAA and 7 DAA. The target weed was Amaranthus viridis, and the concentration of the herbicide and the results are recorded in Table 12. […]

SMILES: C[N+](C)(C)CCO.O=C([O-])COc1ccc(Cl)cc1Cl [2,4-D Choline]
- Observed efficacy (%) of 2,4-D Choline (228 g a.i./ha) (Amaranthus hybridus; Table 9, 3 DAA, 228 g a.i./ha): 95%

SMILES: CS(=O)(=O)c1ccc(C(=O)C2C(=O)CCCC2=O)c([N+](=O)[O-])c1 [Mesotrione]
- Observed efficacy (%) of Mesotrione (100 g a.i./ha) (Amaranthus viridis; Table 12, 3 DAA): 10%
- Observed efficacy (%) of Mesotrione (100 g a.i./ha) (Amaranthus viridis; Table 12, 7 DAA): 30%

SMILES: CC(C)N(C)S(=O)(=O)NC(=O)c1cc(-n2c(=O)cc(C(F)(F)F)n(C)c2=O)c(F)cc1Cl [Saflufenacil]
- Observed efficacy (%) of Saflufenacil (30 g a.i./ha) (Amaranthus hybridus; Table 7, 3 DAA): 50%
- Observed efficacy (%) of Saflufenacil (30 g a.i./ha) (Amaranthus hybridus; Table 8, 3 DAA): 50%
- Observed efficacy (%) of Saflufenacil (30 g a.i./ha) (Amaranthus hybridus; Table 9, 3 DAA): 50%

SMILES: O=C(O)COc1nc(Cl)c(Cl)cc1Cl [Triclopyr]
- Observed efficacy (%) of Triclopyr (228 g a.i./ha) (Amaranthus hybridus; Table 8, 3 DAA, 228 g a.i./ha): 95%

SMILES: CCOC(=O)C(C)Oc1ccc(Oc2cnc3cc(Cl)ccc3n2)cc1 (centres unmarked) [quizalofop-ethyl, Quizalofop-ethyl]
- Observed efficacy (%) of quizalofop-ethyl (25 g a.i./ha) (Amaranthus hybridus; Table 10, 3 DAA): 0%
- Observed efficacy (%) of quizalofop-ethyl (25 g a.i./ha) (Amaranthus hybridus; Table 10, 14 DAA): 0%

SMILES: C[C@@H](Oc1ccc(Oc2cnc3cc(Cl)ccc3n2)cc1)C(=O)OCC1CCCO1 (some centres unmarked) [quizalofop-p-tefuryl, Quizalofop-p-tefuryl]
- Observed efficacy (%) of quizalofop-p-tefuryl (25 g a.i./ha) (Amaranthus hybridus; Table 11, 3 DAA): 0%
- Observed efficacy (%) of quizalofop-p-tefuryl (25 g a.i./ha) (Amaranthus hybridus; Table 11, 14 DAA): 0%

From US20250160332A1, “HERBICIDAL COMBINATIONS AND A METHOD FOR CONTROLLING UNDESIRED VEGETATION” (UPL MAURITIUS LIMITED, priority 2022, published 2025)
